Data as given in ChEMBL document CHEMBL3797052 (Eur J Med Chem, 2016).

How the values were obtained:
A498 [1] = assay: Antiproliferative activity against human A498 cells assessed as growth inhibition after 48 hrs by sulforhodamine B assay; assay type: functional; conditions: A498, 48 h
M14 [2] = assay: Antiproliferative activity against human M14 cells assessed as cell growth at 10^-4 M after 48 hrs by sulforhodamine B assay; assay type: functional; conditions: M14, 48 h, read-out: Activity
NCI-H522 [3] = assay: Antiproliferative activity against human NCI-H522 cells assessed as cell growth at 10^-8 M after 48 hrs by sulforhodamine B assay; assay type: functional; conditions: NCI-H522, 48 h, read-out: Activity
HT-29 [4] = assay: Antiproliferative activity against human HT-29 cells assessed as cell growth at 10^-7 M after 48 hrs by sulforhodamine B assay; assay type: functional; conditions: HT-29, 48 h, read-out: Activity
A549 = assay: Antiproliferative activity against human A549/ATCC cells assessed as growth inhibition after 48 hrs by sulforhodamine B assay; assay type: functional; conditions: A549, 48 h
[5] = Antiproliferative activity against human PC3 cells assessed as growth inhibition after 48 hrs by sulforhodamine B assay; assay type: functional; conditions: PC-3, 48 h
[6] = Antiproliferative activity against human OVCAR8 cells assessed as cell growth at 10^-7 M after 48 hrs by sulforhodamine B assay; assay type: functional; conditions: OVCAR-8, 48 h, read-out: Activity
SR = assay: Antiproliferative activity against human SR cells assessed as cell growth at 10^-4 M after 48 hrs by sulforhodamine B assay; assay type: functional; conditions: read-out: Activity
SN12C = assay: Antiproliferative activity against human SN12C cells assessed as growth inhibition after 48 hrs by sulforhodamine B assay; assay type: functional
HT-29 [7] = assay: Antiproliferative activity against human HT-29 cells assessed as cell growth at 10^-4 M after 48 hrs by sulforhodamine B assay; assay type: functional; conditions: HT-29, 48 h, read-out: Activity
KM12 = assay: Antiproliferative activity against human KM12 cells assessed as cell growth at 10^-7 M after 48 hrs by sulforhodamine B assay; assay type: functional; conditions: KM12, 48 h, read-out: Activity
A498 [8] = assay: Antiproliferative activity against human A498 cells assessed as cell growth at 10^-6 M after 48 hrs by sulforhodamine B assay; assay type: functional; conditions: A498, 48 h, read-out: Activity
NCI-H522 [9] = assay: Antiproliferative activity against human NCI-H522 cells assessed as cell growth at 10^-7 M after 48 hrs by sulforhodamine B assay; assay type: functional; conditions: NCI-H522, 48 h, read-out: Activity
[10] = Antiproliferative activity against human HCC2998 cells assessed as cell growth at 10^-8 M after 48 hrs by sulforhodamine B assay; assay type: functional; conditions: HCC 2998, 48 h, read-out: Activity
[11] = Antiproliferative activity against human Caki1 cells assessed as growth inhibition after 48 hrs by sulforhodamine B assay; assay type: functional; conditions: CAKI-1, 48 h
M14 [12] = assay: Antiproliferative activity against human M14 cells assessed as cell growth at 10^-8 M after 48 hrs by sulforhodamine B assay; assay type: functional; conditions: M14, 48 h, read-out: Activity
[13] = Antiproliferative activity against human MOLT4 cells assessed as growth inhibition after 48 hrs by sulforhodamine B assay; assay type: functional; conditions: MOLT-4, 48 h
NCI-H226 = assay: Antiproliferative activity against human NCI-H226 cells assessed as cell growth at 10^-6 M after 48 hrs by sulforhodamine B assay; assay type: functional; conditions: NCI-H226, 48 h, read-out: Activity
U-251 = assay: Antiproliferative activity against human U251 cells assessed as cell growth at 10^-8 M after 48 hrs by sulforhodamine B assay; assay type: functional; conditions: U-251, 48 h, read-out: Activity
[14] = Antiproliferative activity against human MOLT4 cells assessed as cell growth at 10^-8 M after 48 hrs by sulforhodamine B assay; assay type: functional; conditions: MOLT-4, 48 h, read-out: Activity
[15] = molecular target: Serine/threonine-protein kinase B-raf (Homo sapiens, UniProt P15056, V600E); assay: Inhibition of BRAF V600E mutant (unknown origin) measured after 40 mins by scintillation counting
[16] = molecular target: Voltage-gated inwardly rectifying potassium channel KCNH2 (Homo sapiens, UniProt Q12809); assay: Inhibition of human ERG assessed as reduction in channel current by automated patch-clamp electrophysiology assay
[17] = Antiproliferative activity against human HCC2998 cells assessed as cell growth at 10^-4 M after 48 hrs by sulforhodamine B assay; assay type: functional; conditions: HCC 2998, 48 h, read-out: Activity
[18] = Antiproliferative activity against human SKOV3 cells assessed as growth inhibition after 48 hrs by sulforhodamine B assay; assay type: functional; conditions: SK-OV-3, 48 h
[19] = Antiproliferative activity against human TK10 cells assessed as cell growth at 10^-8 M after 48 hrs by sulforhodamine B assay; assay type: functional; conditions: TK-10, 48 h, read-out: Activity
[20] = Antiproliferative activity against human TK10 cells assessed as growth inhibition after 48 hrs by sulforhodamine B assay; assay type: functional; conditions: TK-10, 48 h
[21] = Antiproliferative activity against human SKOV3 cells assessed as cell growth at 10^-6 M after 48 hrs by sulforhodamine B assay; assay type: functional; conditions: SK-OV-3, 48 h, read-out: Activity
K562 = assay: Antiproliferative activity against human K562 cells assessed as cell growth at 10^-8 M after 48 hrs by sulforhodamine B assay; assay type: functional; conditions: K562, 48 h, read-out: Activity
CCRF-CEM = assay: Antiproliferative activity against human CCRF-CEM cells assessed as cell growth at 10^-6 M after 48 hrs by sulforhodamine B assay; assay type: functional; conditions: read-out: Activity
MDA-MB-231 = assay: Antiproliferative activity against human MDA-MB-231 cells assessed as cell growth at 10^-6 M after 48 hrs by sulforhodamine B assay; assay type: functional; conditions: MDA-MB-231, 48 h, read-out: Activity
SK-MEL-2 = assay: Antiproliferative activity against human SK-MEL-2 cells assessed as cell growth at 10^-6 M after 48 hrs by sulforhodamine B assay; assay type: functional; conditions: SK-MEL-2, 48 h, read-out: Activity
[22] = Antiproliferative activity against human HCT15 cells assessed as cell growth at 10^-6 M after 48 hrs by sulforhodamine B assay; assay type: functional; conditions: HCT-15, 48 h, read-out: Activity
MDA-MB-468 = assay: Antiproliferative activity against human MDA-MB-468 cells assessed as cell growth at […] after 48 hrs by sulforhodamine B assay; assay type: functional; conditions: MDA-MB-468, 48 h, read-out: Activity
[23] = Antiproliferative activity against human HOP62 cells assessed as cell growth at 10^-4 M after 48 hrs by sulforhodamine B assay; assay type: functional; conditions: HOP-62, 48 h, read-out: Activity
NCI-H460 = assay: Antiproliferative activity against human NCI-H460 cells assessed as growth inhibition after 48 hrs by sulforhodamine B assay; assay type: functional; conditions: NCI-H460, 48 h
[24] = Antiproliferative activity against human OVCAR4 cells assessed as cell growth at 10^-6 M after 48 hrs by sulforhodamine B assay; assay type: functional; conditions: OVCAR-4, 48 h, read-out: Activity
[25] = read-out: LC50 (the source's name)

Chain of Serine/threonine-protein kinase B-raf (P15056 2-766 V600E limits assumed): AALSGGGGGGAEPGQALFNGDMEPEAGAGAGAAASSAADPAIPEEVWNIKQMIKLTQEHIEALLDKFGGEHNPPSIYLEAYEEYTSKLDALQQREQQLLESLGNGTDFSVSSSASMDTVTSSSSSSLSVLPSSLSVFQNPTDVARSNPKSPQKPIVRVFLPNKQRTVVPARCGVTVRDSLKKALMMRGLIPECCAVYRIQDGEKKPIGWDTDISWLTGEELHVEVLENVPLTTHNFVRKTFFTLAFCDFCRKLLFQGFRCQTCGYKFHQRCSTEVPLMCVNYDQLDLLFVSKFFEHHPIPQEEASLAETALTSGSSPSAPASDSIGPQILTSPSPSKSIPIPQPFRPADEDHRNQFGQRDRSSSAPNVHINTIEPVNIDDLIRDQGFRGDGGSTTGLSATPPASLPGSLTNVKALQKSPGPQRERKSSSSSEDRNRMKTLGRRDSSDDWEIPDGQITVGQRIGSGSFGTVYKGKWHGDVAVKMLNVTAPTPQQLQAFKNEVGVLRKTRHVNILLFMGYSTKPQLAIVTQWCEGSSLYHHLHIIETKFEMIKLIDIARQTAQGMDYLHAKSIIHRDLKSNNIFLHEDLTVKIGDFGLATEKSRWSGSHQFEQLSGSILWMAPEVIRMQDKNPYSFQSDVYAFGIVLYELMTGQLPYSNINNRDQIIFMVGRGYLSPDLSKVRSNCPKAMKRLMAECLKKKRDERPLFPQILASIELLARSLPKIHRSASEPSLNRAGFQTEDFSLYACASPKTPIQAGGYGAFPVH
Chain of Voltage-gated inwardly rectifying potassium channel KCNH2 (Q12809 whole entry): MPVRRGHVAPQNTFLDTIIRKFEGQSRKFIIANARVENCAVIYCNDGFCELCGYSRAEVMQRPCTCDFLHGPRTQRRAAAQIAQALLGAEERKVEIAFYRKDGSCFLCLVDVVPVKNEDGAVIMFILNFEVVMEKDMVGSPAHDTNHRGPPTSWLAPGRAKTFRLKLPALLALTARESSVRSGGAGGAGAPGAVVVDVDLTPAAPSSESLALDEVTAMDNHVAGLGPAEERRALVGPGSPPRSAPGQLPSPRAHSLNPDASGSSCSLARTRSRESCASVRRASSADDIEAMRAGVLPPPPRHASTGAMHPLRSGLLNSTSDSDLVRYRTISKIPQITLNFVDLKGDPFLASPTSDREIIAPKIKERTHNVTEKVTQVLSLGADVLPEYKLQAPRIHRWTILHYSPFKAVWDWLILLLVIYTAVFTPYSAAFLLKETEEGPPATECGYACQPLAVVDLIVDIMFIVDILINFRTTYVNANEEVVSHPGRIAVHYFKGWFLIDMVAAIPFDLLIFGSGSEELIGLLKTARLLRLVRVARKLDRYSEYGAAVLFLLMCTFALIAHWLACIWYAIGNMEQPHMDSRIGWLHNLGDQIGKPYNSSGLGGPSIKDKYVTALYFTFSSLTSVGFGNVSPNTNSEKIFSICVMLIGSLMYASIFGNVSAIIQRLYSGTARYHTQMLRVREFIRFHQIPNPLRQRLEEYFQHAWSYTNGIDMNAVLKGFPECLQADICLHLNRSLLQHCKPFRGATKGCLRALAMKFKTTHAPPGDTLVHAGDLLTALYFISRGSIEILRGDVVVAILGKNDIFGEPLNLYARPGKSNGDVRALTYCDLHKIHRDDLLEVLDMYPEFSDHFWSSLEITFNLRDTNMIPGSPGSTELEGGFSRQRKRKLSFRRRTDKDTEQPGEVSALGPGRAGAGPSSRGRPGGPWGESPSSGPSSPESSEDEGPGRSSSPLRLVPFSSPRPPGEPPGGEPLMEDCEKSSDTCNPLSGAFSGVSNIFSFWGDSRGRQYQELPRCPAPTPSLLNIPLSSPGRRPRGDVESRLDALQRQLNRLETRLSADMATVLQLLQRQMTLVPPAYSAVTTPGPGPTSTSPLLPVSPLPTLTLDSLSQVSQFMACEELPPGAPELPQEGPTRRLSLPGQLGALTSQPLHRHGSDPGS

Compound: CNC(=O)c1cc(Oc2ccc3nc(NC(=O)Nc4ccc(Cl)c(C(F)(F)F)c4)sc3c2)ccn1
- GI50 (A498 [1]): 2.49 µM
- LC50 (concentration killing 50% of cells) (A498 [1]): > 100 µM
- TGI (A498 [1]): 12.2 µM
- growth at 100 µM (M14 [2]): 15%
- growth at 0.01 µM (NCI-H522 [3]): 98%
- growth at 0.1 µM (HT-29 [4]): 103%
- GI50 (A549): 1.93 µM
- CC50 (A549; [25]): > 100 µM
- GI50 [5]: 1.42 µM
- growth at 0.1 µM [6]: 108%
- growth at 100 µM (SR): -11%
- GI50 (SN12C): 2.44 µM
- TGI (SN12C): > 100 µM
- CC50 (SN12C; [25]): > 100 µM
- growth at 100 µM (HT-29 [7]): 68%
- growth at 0.1 µM (KM12): 102%
- growth at 1 µM (A498 [8]): 80%
- growth at 0.1 µM (NCI-H522 [9]): 95%
- growth at 0.01 µM [10]: 107%
- GI50 [11]: 2.54 µM
- CC50 [11, 25]: > 100 µM
- growth at 0.01 µM (M14 [12]): 90%
- LC50 [13]: > 100 µM
- TGI [13]: > 100 µM
- growth at 1 µM (NCI-H226): 98%
- growth at 0.01 µM (U-251): 102%
- growth at 0.01 µM [14]: 106%
- IC50 [15]: 0.131 µM
- IC50 [16]: > 100 µM
- growth at 100 µM [17]: 66%
- GI50 [18]: 1.89 µM
- TGI [18]: 4.21 µM
- CC50 [18, 25]: 9.39 µM
- growth at 0.01 µM [19]: 104%
- GI50 [20]: 2.29 µM
- TGI [20]: 4.62 µM
- CC50 [20, 25]: 9.32 µM
- growth at 1 µM [21]: 90%
- growth at 0.01 µM (K562): 107%
- growth at 1 µM (CCRF-CEM): 73%
- growth at 1 µM (MDA-MB-231): 66%
- growth at 1 µM (SK-MEL-2): 89%
- growth at 1 µM [22]: 74%
- growth at 0.01 µM (MDA-MB-468): 86%
- growth at 100 µM [23]: -34%
- GI50 (NCI-H460): 1.79 µM
- growth at 1 µM [24]: 82%
